Test results published in US5508293A, “Pyridinecarboxyimidamide compounds and the use thereof” (Kirin Beer Kabushiki Kaisha, priority 1992, dated 1996).
pIC50: −log10 of the molar value. One block for each molecule: values may come before it.

Experiments:
rat aorta = experiment: Vasodilating effect in a rat aorta (relaxation of KCl-induced contraction); set-up: species or system rat (male Wistar rat); settings: isolated rat thoracic aorta, 40 mM KCl; read-out: IC50 (concentration for inhibiting 50% of the tension induced by KCl)
Method: Physiological effect of the compound of the present invention was tested by the method with use of an isolated rat aorta.
Thoracic aorta was isolated from a male Wistar rat (body weight, 250-350 g) exsanguinated to death for obtaining ring preparations having a width of 3 mm. The preparations were suspended into an organ bath filled with the Krebs-Ringer solution through which a mixed gas of 95% O2 and 5% CO2 had been aerated at 37° C. A resting tension of 1 g was applied to the preparation. After the tension in the preparation was stabilized, the solution in the organ bath was exchanged with an equimolar solution containing 40 mM KC1 to increase the tension of the preparation. When the tension induced by KCl become stable, the test compound was cumulatively added to the organ bath to relax the preparation. Relaxation response was expressed as percentage inhibition of KCl-induced contraction, and the IC50 value (concentration for inhibiting 50% of the tension induced by KCl) was calculated from the average concentration-response curve by the Probit method.

[1] = test system: spontaneously hypertensive rats (SHR), systolic blood pressure; experiment: Antihypertensive effects on conscious SHR (oral), Compound Nos. 18 and 19; type: in vivo, rat (male spontaneously hypertensive rats; settings: 3.0 mg/kg oral
Method: Antihypertensive effects of- 5-amino-N-cyano-N'-(2-nitroxyethyl)-3-pyridinecarboximidamide (N-cyano-N'-(2-nitroxyethyl)-5-(3-aminopyridine)carboximidamide; Compound No. 18) and N-cyano-5-ethylamino-N'-(2-nitroxyethyl)-3-pyridinecarboximidamide (N-cyano-N'-(2-nitroxyethyl)-5-[3-(N-ethylaminopyridine)]carboximidamide; Compound No. 19) were assessed by comparison with those of the methanesulfonate salt of N-cyano-N'-(2-nitroxyethyl)-3-pyridinecarboximidamide (compound described in Japanese Patent Laid-Open Publication No. 163061/1991) as a reference compound which is thought to be a well-known compound most similar to the compound of the present invention.
(§1) Systolic blood pressure (SBP) was measured with the tail cuff method.
(§2) Each of the compound Nos. 18 and 19 was dissolved in an equivalent mixture of polyethylene glycol 200 and physiological saline, and the reference compound was dissolved in physiological saline. The compounds were administered orally with the aid of an oral probe. SBP was measured before administration and 1, 2, 4, 6, 8, 12 and 24 hours after administration of the compound. The results were expressed as the percentage change in SBP observed before administration.

[2] = test system: spontaneously hypertensive rats (SHR), mean blood pressure; experiment: Antihypertensive activities on spontaneously hypertensive rat (intravenously); type: in vivo, rat (male spontaneously hypertensive rats; settings: iv, anesthetized male SHR, i.v., cumulative dosing, read-out: ED20 (the dose which lowered the blood pressure by 20%)
Method: Animals were anesthetized with urethane: α-chloralose.
A cannula was inserted into the carotid artery for measuring the mean blood pressure via a pressure transducer. A test compound was cumulatively administered through the cannula inserted into the femoral vein with an interval of 30 minutes. Variation of blood pressure was determined as the percentage change in the blood pressure before administration of the test compound, and the ED20 (the dose which lowered the blood pressure by 20%) was calculated from a dose-response curve.

[3] = test system: spontaneously hypertensive rats (SHR), systolic blood pressure; experiment: Time course of antihypertensive activity in conscious SHR (oral), Compound No. 16; type: in vivo, rat (male spontaneously hypertensive rats; settings: 3.0 mg/kg oral
Method: Time course of antihypertensive activity of 5-amino-N-cyano-N'-(2-phenethyl)pyridinecarboximidamide (Compound No. 16) was examined.
as §1
as §2, with “The” for “Each of the”, “No. 16” for “Nos. 18 and 19”, “and” for “and the reference compound was dissolved in physiological saline. The compounds were”, “obtained” for “observed”

[4] = test system: coronary blood flow (circumflex branch of the left coronary artery), beagles; experiment: Coronary dilating effect on beagles (coronary blood flow, anesthetized dog); type: in vivo; settings: i.v., 10 Mg/Kg
Method: Coronary dilating effects of 5-amino-N-cyano-N'-(2-nitroxyethyl)-3-pyridinecarboximidamide (Compound No. 18) of the present invention was assessed by comparison with those of N-cyano-N'-(2-nitroxyethyl)-3-pyridinecarboximidamide methanesulfonic acid (compound described in Japanese Patent Laid-Open Publication No. 163061/1991) which is thought to be a well-known compound most similar to the compound of the present invention.
A dog (body weight, 8.3 kg) was anesthetized with 30 mg/kg of pentobarbital sodium intravenously. Respiration was maintained with room air through a cuffed endotracheal tube. The drug was administered through the femoral vein, and the coronary blood flow was measured by a probe attached to the circumflex branch of the left coronary artery.

beagles, blood pressure = experiment: Antihypertensive activity on anesthetized beagles (intravenously); type: in vivo, dog (beagles); settings: for Antihypertensive activity (%): i.v.
Method: Antihypertensive activities of 5-amino-N-cyano-N'-[2-(2-chlorophenyl)ethyl]-3-pyridinecarboximidamide (N-cyano-N'-[2-(2-chlorophenyl)ethyl]-5-(3aminopyridine)carboximidamide; Compound No. 6) according to the present invention was assessed by comparison with those of N-cyano-N'-[2-(2-chlorophenyl)ethyl]-3-pyridinecarboximidamide which is thought to be a wellknown compound most similar to the compound of the present invention (see Japanese Patent Laid-Open Publication No. 163061/1991).
Experiments were carried out with beagles (body weight, 9.2-10.4 kg) under anesthetization by intravenous administering 30 mg/kg of pentobarbital sodium. A cannula was inserted into the right femoral artery for measuring blood pressure. […]

- pIC50 (rat aorta): 5.00
Compound: CCNc1cncc(C(=NCCO[N+](=O)[O-])NC#N)c1 [Compound No. 19, N-cyano-5-ethylamino-N'-(2-nitroxyethyl)-3-pyridinecarboximidamide]
- decrease in blood pressure / antihypertensive effect [1]: decrease in blood pressure was observed
- duration of the antihypertensive effect [1]: ≥ 12 h
- percent change in SBP observed before administration of the compound ([1]; 1 hour after administration): -60.2%
- percent change in SBP observed before administration of the compound ([1]; 2 hour after administration): -47.2%
- percent change in SBP observed before administration of the compound ([1]; 4 hour after administration): -24.3%
- percent change in SBP observed before administration of the compound ([1]; 6 hour after administration): -23.9%
- percent change in SBP observed before administration of the compound ([1]; 8 hour after administration): -25.9%
- percent change in SBP observed before administration of the compound ([1]; 12 hour after administration): -27.7%
- percent change in SBP observed before administration of the compound ([1]; 24 hour after administration): -9.8%

Compound: N#CNC(=NCCc1ccccc1Cl)c1ccc(N)nc1 [compound 5, 6-amino-N-cyano-N'-[2-(2-chlorophenyl)ethyl]-3-pyridinecarboximidamide]
- ED20 [2]: 0.0333 mg/kg

Compound: N#CN=C(NCCc1ccccc1)c1cncc(N)c1 [Compound No. 16, 5-amino-N-cyano-N'-(2-phenethyl)-3-pyridine-carboximidamide]
- ED20 [2]: 0.028 mg/kg
- decrease in blood pressure [3]: decrease in blood pressure was observed
- duration of the antihypertensive effect [3]: ≥ 12 h
- percentage change in SBP obtained before administration ([3]; 1 hour after administration): -45.3%
- percentage change in SBP obtained before administration ([3]; 2 hour after administration): -23.9%
- percentage change in SBP obtained before administration ([3]; 4 hour after administration): -42.3%
- percentage change in SBP obtained before administration ([3]; 6 hour after administration): -27.9%
- percentage change in SBP obtained before administration ([3]; 8 hour after administration): -22.8%
- percentage change in SBP obtained before administration ([3]; 12 hour after administration): -15.1%
- percentage change in SBP obtained before administration ([3]; 24 hour after administration): -8.2%

Compound: CCc1cncc(C(=NCCc2ccccc2Cl)NC#N)c1 [compound 2, N-cyano-N'-[2-(2-chlorophenyl)ethyl]-5-ethyl-3-pyridinecarboximidamide]
- ED20 [2]: 0.007 mg/kg

Compound: N#CNC(=NCCO[N+](=O)[O-])c1cccnc1 [Reference Compound, N-cyano-N'-(2-nitroxyethyl)-3-pyridinecarboximidamide, reference compound]
- decrease in blood pressure / antihypertensive effect [1]: antihypertensive effect was also observed
- duration of the antihypertensive effect [1]: about 6 hours
- percent change in SBP observed before administration of the compound ([1]; 1 hour after administration): -55.9%
- percent change in SBP observed before administration of the compound ([1]; 2 hour after administration): -41.5%
- percent change in SBP observed before administration of the compound ([1]; 4 hour after administration): -10.6%
- percent change in SBP observed before administration of the compound ([1]; 6 hour after administration): -6.8%
- increase of coronary blood flow [4]: increase in coronary blood flow was observed
- time for which the increase of coronary blood flow was retained [4]: ≤ 10 min
- percent change of coronary blood flow as compared with the blood flow before administration ([4]; 1 min after dosage): 219.0%
- percent change of coronary blood flow as compared with the blood flow before administration ([4]; 3 min after dosage): 42.9%
- percent change of coronary blood flow as compared with the blood flow before administration ([4]; 5 min after dosage): 14.3%
- percent change of coronary blood flow as compared with the blood flow before administration ([4]; 10 min after dosage): 0.0%

Compound: CC(=O)Nc1cncc(C(=NC#N)NCCc2ccccc2Cl)c1 [compound 7, 5-acetamide-N-cyano-N'-[2-(2-chlorophenyl)-ethyl]-3-pyridinecarboximidamide]
- ED20 [2]: 0.0123 mg/kg

Compound: N#CNC(=NCCc1ccccc1Cl)c1cccnc1 [N-cyano-N'-[2-(2-chlorophenyl)ethyl]-3-pyridinecarboximidamide, reference compound]
- decrease in blood pressure (beagles, blood pressure; 10 and 30 μg/kg): decrease in blood pressure was observed
- recovery of the decrease in blood pressure after administration (beagles, blood pressure; both doses, 10 and 30 μg/kg): ≤ 10 min
- Antihypertensive activity (%) (beagles, blood pressure; dose 3 μg/kg, 0 min after dosage): 0.0%
- Antihypertensive activity (%) (beagles, blood pressure; dose 3 μg/kg, 1 min after dosage): 0.0%
- Antihypertensive activity (%) (beagles, blood pressure; dose 3 μg/kg, 2 min after dosage): 1.9%
- Antihypertensive activity (%) (beagles, blood pressure; dose 3 μg/kg, 3 min after dosage): 1.9%
- Antihypertensive activity (%) (beagles, blood pressure; dose 10 μg/kg, 0 min after dosage): 0.0%
- Antihypertensive activity (%) (beagles, blood pressure; dose 10 μg/kg, 1 min after dosage): -23.4%
- Antihypertensive activity (%) (beagles, blood pressure; dose 10 μg/kg, 2 min after dosage): -17.7%
- Antihypertensive activity (%) (beagles, blood pressure; dose 10 μg/kg, 3 min after dosage): -13.1%
- Antihypertensive activity (%) (beagles, blood pressure; dose 10 μg/kg, 5 min after dosage): -4.7%
- Antihypertensive activity (%) (beagles, blood pressure; dose 30 μg/kg, 0 min after dosage): 0.0%
- Antihypertensive activity (%) (beagles, blood pressure; dose 30 μg/kg, 1 min after dosage): -41.7%
- Antihypertensive activity (%) (beagles, blood pressure; dose 30 μg/kg, 2 min after dosage): -39.8%
- Antihypertensive activity (%) (beagles, blood pressure; dose 30 μg/kg, 3 min after dosage): -33.3%
- Antihypertensive activity (%) (beagles, blood pressure; dose 30 μg/kg, 5 min after dosage): -16.7%
- Antihypertensive activity (%) (beagles, blood pressure; dose 30 μg/kg, 7.5 min after dosage): -2.8%
- Antihypertensive activity (%) (beagles, blood pressure; dose 30 μg/kg, 10 min after dosage): -0.9%

- pIC50 (rat aorta): 5.34
Compound: CCN(CC)c1ccc(C(=NCCO[N+](=O)[O-])NC#N)cn1 [compound 21, N-cyano-6-diethylamino-N'-(2-nitroxyethyl)-3-pyridinecarboximidamide]

Compound: Cc1cncc(C(=NCCc2ccccc2Cl)NC#N)c1 [Compound No. 1, N-cyano-N'-[2-(2-chlorophenyl)ethyl]-5-methyl-3-pyridinecarboximidamide]
- ED20 [2]: 0.0171 mg/kg

Compound: N#CNC(=NCCc1ccccc1Cl)c1cncc(CO)c1 [compound 3, N-cyano-N'-[2-(2-chlorophenyl)ethyl]-5-hydroxymethyl-3-pyridinecarboximidamide]
- ED20 [2]: 0.0087 mg/kg

Compound: CCNc1cncc(C(=NCCc2ccccc2Cl)NC#N)c1 [compound 10, N-cyano-N'-[2-(2-chlorophenyl)ethyl]-5-ethylamino-3-pyridinecarboximidamide]
- ED20 [2]: 0.0079 mg/kg

- pIC50 (rat aorta): 5.57
Compound: N#CNC(=NCCO[N+](=O)[O-])c1ccc(N)nc1 [compound 20, 6-amino-N-cyano-N'-(2-nitroxyethyl)-3-pyridinecarboximidamide]
